Measurements taken from patent US20140350273A1, “PEDIATRIC USES OF CABAZITAXEL” (AVENTIS PHARMA S.A., priority 2012, published 2014).
Like-named read-outs stand apart in the source and are kept apart here.

System: human Ewing's sarcoma SK-ES-1
Format: in vivo
Design: Tumor volume changes from baseline: Median (nMad): unit not given here
Method: This efficacy may be quantified, for example, as changes in tumor volume for each treated (T) and control (C) group, which are calculated for each animal and each day by subtracting the tumor volume on the day of first treatment (staging day) from the tumor volume on the specified observation day. This allows calculating the tumor growth inhibition: ΔT/ΔC=(median delta T/median delta C)×100. Individual tumor volume changes from baseline are thereafter analyzed by a non-parametric two-way ANOVA-TYPE (with factors: group and repeated days) followed by a post-hoc contrasts analysis, with Bonferroni-Holm adjustment for multiplicity, comparing all treated groups to the control group. […] A probability less than 5% (p<0.05) was considered as significant.
Based on the National Cancer Institute (NCl) standards, a ΔT/ΔC≦40% is the minimal level required to declare activity.
The tumor doubling time (in days; Td) was estimated from the plot of the log linear growth of the control group tumors in exponential growth (100 to 1000 mm^3 range) [T. H. Corbett et al., Cancer, 40: 2660-2680 (1977); F. M. Schabel et al., Cancer Drug Development, Part B, Methods in Cancer Research, 17: 3-51, New York, Academic Press Inc. (1979)].
This efficacy may also be quantified by the number of tumor regressions observed after therapy. Individual mice reporting a tumor volume ≦50% of the Day 0 measurement for two consecutive measurements over a seven day period were considered partial responders (PR). Individual mice lacking palpable tumors (<4×4 mm^2 for two consecutive measurements over a seven day period) were classified as complete responders (CR); a CR that persisted until study completion was considered a tumor-free survivor (TFS).
The efficacy of cabazitaxel in comparison with docetaxel on pediatric solid tumors was determined experimentally in the following manner:
The animals subjected to the experiment are subcutaneously grafted unilaterally with approximately 30 mg of a tumor fragment on day 0. The animals are implanted with a human tumor xenografted in immunocompromized mice. Several days post tumor implantation, mice are randomized according to their body weight to the different groups of treatments and controls. The animals are observed every day. The different animal groups are weighed daily during treatment until the maximum weight loss is reached and subsequent full weight recovery has occurred. The groups are then weighed once or twice a week until the end of the trial.
The tumors are measured 1 to 5 times a week, depending on the tumor doubling time, until the tumor reaches approximately 1,000 mm^3, or until the animal dies (if this occurs before the tumor reaches 1,000 mm^3). The animals are necropsied immediately after euthanasia or death.
The selected tumor model was a human Ewing's sarcoma SK-ES-1, xenografted in SCID mice [Fogh J. New York: Plenum Press, 1975].
Cabazitaxel and docetaxel were weighed for each treatment and dissolved in ethanol. Treatment solutions were prepared first by mixing 1 volume of ethanolic stock solution and 1 volume of polysorbate 80, then by adding 18 volumes of glucose 5% in water.
The Td in days was estimated from the plot of the log linear growth of the control group tumors in exponential growth (100 to 1,000 mm^3 range) and the number of tumor regressions observed after therapy.
The following end points have been used: • Toxicity was declared at dosages inducing ≧20% body weight loss or ≧10% drug death; • Relative tumor growth inhibition was determined on day 22 post tumor implantation when the median tumor size in the control group was 456 mm^3; • Antitumor efficacy was determined by calculating the ΔT/ΔC value in percent, according to the above-mentioned formula; • Tumor regressions (as explained above); • Statistical analysis performed (as explained above).

[1] = 3.5 mg/kg per injection (total 7.0) IV days 15; 19
[2] = 3.5 mg/kg per injection (total 7.0) IV days 15; 19; listed as DOCETAXEL
[3] = 3.5 mg/kg per injection (total 7.0) IV days 15; 19; listed as docetaxel
[4] = 5.6 mg/kg per injection (total 11.2) IV days 15; 19
[5] = 5.6 mg/kg per injection (total 11.2) IV days 15; 19; listed as DOCETAXEL
[6] = 9.0 mg/kg per injection (total 18) IV days 15; 19
[7] = 9.0 mg/kg per injection (total 18) IV days 15; 19; listed as DOCETAXEL
[8] = 14.5 mg/kg per injection (total 29) IV days 15; 19
[9] = 14.5 mg/kg per injection (total 29) IV days 15; 19; listed as DOCETAXEL
[10] = 14.5 mg/kg per injection (total 29) IV days 15; 19; listed as docetaxel

CC(=O)O[C@@]12CO[C@@H]1C[C@H](O)[C@@]1(C)C(=O)[C@H](O)C3=C(C)[C@@H](OC(=O)[C@H](O)[C@@H](NC(=O)OC(C)(C)C)c4ccccc4)C[C@@](O)([C@@H](OC(=O)c4ccccc4)[C@H]21)C3(C)C [Docetaxel, docetaxel]
Average body weight change in % per mouse at nadir [1]: −2.1% | Drug death [1]: 0/7 | Regressions Complete [1]: 0/7 | Regressions Partial [1]: 0/7 | Tumor free survivors at day 120 [1]: 0/7 | day of nadir [1]: 16 days | Biological interpretation [2]: Inactive | ΔT/ΔC in % (day 22) [2]: 72% | Biological interpretation [3]: inactive | ΔT/ΔC in % (day 22) [3]: > 40% | Tumor volume changes from baseline: Median (nMad) (3.5 mg/kg, day 19): 52 | Tumor volume changes from baseline: Median (nMad) (3.5 mg/kg, day 22): 136 | Tumor volume changes from baseline: Median (nMad) (3.5 mg/kg, day 25): 712 | Tumor volume changes from baseline: Median (nMad) (3.5 mg/kg, day 28): 900 | Tumor volume changes from baseline: Median (nMad) (3.5 mg/kg; day 19): 52 (89) | Tumor volume changes from baseline: Median (nMad) (3.5 mg/kg; day 22): 136 | Tumor volume changes from baseline: Median (nMad) (3.5 mg/kg; day 25): 712 (29.7) | Tumor volume changes from baseline: Median (nMad) (3.5 mg/kg; day 28): 900 | Average body weight change in % per mouse at nadir [4]: −5.4% | Drug death [4]: 0/7 | Regressions Complete [4]: 0/7 | Regressions Partial [4]: 1/7 | Tumor free survivors at day 120 [4]: 0/7 | day of nadir [4]: 16 days | Biological interpretation [5]: Highly Active | ΔT/ΔC in % (day 22) [5]: <0% | Biological interpretation (5.6 mg/kg per injection (total 11.2) IV days 15; 19; listed as docetaxel): highly active | Tumor volume changes from baseline: Median (nMad) (5.6 mg/kg, day 19): 0 | Tumor volume changes from baseline: Median (nMad) (5.6 mg/kg, day 22): −36 | Tumor volume changes from baseline: Median (nMad) (5.6 mg/kg, day 25): 168 | Tumor volume changes from baseline: Median (nMad) (5.6 mg/kg, day 28): 342 | Tumor volume changes from baseline: Median (nMad) (5.6 mg/kg; day 19): 0 (106.7) | Tumor volume changes from baseline: Median (nMad) (5.6 mg/kg; day 22): −36 (60.8) | Tumor volume changes from baseline: Median (nMad) (5.6 mg/kg; day 25): 168 (80.1) | Tumor volume changes from baseline: Median (nMad) (5.6 mg/kg; day 28): 342 (89) | Tumor volume changes from baseline: Median (nMad) (5.6 mg/kg; day 32): 480 | Tumor volume changes from baseline: Median (nMad) (5.6 mg/kg; day 35): 2005 | Average body weight change in % per mouse at nadir [6]: −6.6% | Drug death [6]: 0/7 | Regressions Complete [6]: 0/7 | Regressions Partial [6]: 6/7 | Tumor free survivors at day 120 [6]: 0/7 | day of nadir [6]: 23 days | Biological interpretation [7]: Highly Active | ΔT/ΔC in % (day 22) [7]: <0% | Biological interpretation (9.0 mg/kg per injection (total 18) IV days 15; 19; listed as docetaxel): highly active | Tumor volume changes from baseline: Median (nMad) (9 mg/kg, day 19): 0 | Tumor volume changes from baseline: Median (nMad) (9 mg/kg, day 22): −101 | Tumor volume changes from baseline: Median (nMad) (9 mg/kg, day 25): −126 | Tumor volume changes from baseline: Median (nMad) (9 mg/kg, day 28): −126 | Tumor volume changes from baseline: Median (nMad) (9 mg/kg; day 19): 0 (37.1) | Tumor volume changes from baseline: Median (nMad) (9 mg/kg; day 22): −101 | Tumor volume changes from baseline: Median (nMad) (9 mg/kg; day 25): −126 | Tumor volume changes from baseline: Median (nMad) (9 mg/kg; day 28): −126 (46) | Tumor volume changes from baseline: Median (nMad) (9 mg/kg; day 32): −49 | Tumor volume changes from baseline: Median (nMad) (9 mg/kg; day 35): 201 | Average body weight change in % per mouse at nadir [8]: −10.5% | Drug death [8]: 0/7 | Regressions Complete [8]: 3/7 | Regressions Partial [8]: 7/7 | day of nadir [8]: 27 days | Biological interpretation [9]: Highly Active | Tumor free survivors at day 120 [9]: 0/7 | ΔT/ΔC in % (day 22) [9]: <0% | Biological interpretation [10]: highly active | Tumor free survivors at day 120 [10]: no TFS | Tumor volume changes from baseline: Median (nMad) (14.5 mg/kg, day 19): −18 | Tumor volume changes from baseline: Median (nMad) (14.5 mg/kg, day 22): −156 | Tumor volume changes from baseline: Median (nMad) (14.5 mg/kg, day 25): −173 | Tumor volume changes from baseline: Median (nMad) (14.5 mg/kg, day 28): −164 | Tumor volume changes from baseline: Median (nMad) (14.5 mg/kg; day 19): −18 (77.1) | Tumor volume changes from baseline: Median (nMad) (14.5 mg/kg; day 22): −156 | Tumor volume changes from baseline: Median (nMad) (14.5 mg/kg; day 25): −173 | Tumor volume changes from baseline: Median (nMad) (14.5 mg/kg; day 28): −164 | Tumor volume changes from baseline: Median (nMad) (14.5 mg/kg; day 32): −162 | Tumor volume changes from baseline: Median (nMad) (14.5 mg/kg; day 35): −162 | Tumor volume changes from baseline: Median (nMad) (14.5 mg/kg; day 39): 290 | Tumor volume changes from baseline: Median (nMad) (14.5 mg/kg; day 41): 274 | Tumor volume changes from baseline: Median (nMad) (14.5 mg/kg; day 43): 427.5 | Tumor volume changes from baseline: Median (nMad) (14.5 mg/kg; day 45): 574
